According to patent US20260053811A1, “METHODS OF TREATING HYPERTENSION IN OBESE SUBJECTS” (Mineralys Therapeutics, Inc., priority 2022, published 2026):
Marks after values point to notes of the source that are not given here.

Assays:
Format in all cases: in vivo, human
hypertensive subjects [1] = experiment: ACTH stimulation testing / adrenocortical insufficiency
Method: 11-deoxycorticosterone levels were unaffected. […] Due to supply chain disruption, the ability to perform ACTH stimulation testing was limited during the first part of the trial. However, the majority of subjects in Part 2 dosed with 100 mg QD, the maximum dose tested, had ACTH-stimulation testing performed at Baseline and after 8 weeks of treatment.

hypertensive subjects [2] = experiment: Serum sodium; conditions: active treatment cohorts; Parts 1 and 2
plasma renin activity = experiment: Plasma renin activity (PRA) (pharmacodynamic response); conditions: for Renin Activity, Mean (SD) Observed / Renin Activity, Mean (SD) Percent Change from Baseline: Part 1; for Renin Activity, Mean Observed / Renin Activity, Mean Percent Change from Baseline: Part 2
Source text: PK/PD Analysis Set includes all subjects in the SAF who have sufficient data available for the analysis of pharmacokinetic and pharmacodynamic measurements. In the analyses based on PKPD, subjects will be analyzed according to the actual treatment received.

hypertensive subjects [3] = experiment: Vital signs, physical examination, ECG parameters; conditions: Parts 1 and 2
Source text: (§1) Safety endpoints of this study are: • (a) Incidence and severity of all spontaneously reported adverse events (AEs) • (b) Changes in vital signs (standing SBP, standing DBP, body temperature, heart rate, and respiratory rate) • (c) Changes in electrocardiogram parameters (including cardiac intervals: PR, QRS, QT, and corrected QT interval using Fridericia's formula) • (d) Changes in clinical laboratory assessments (hematology, chemistry, coagulation, and urinalysis) • (e) Change in office-measured SBP from Study Week 8 (end-of-treatment period to end of follow up (i.e. end of Study Week 12 for Part 1 and end of Study 10 for Part 2).

hypertensive subjects [4] = experiment: Serum potassium; conditions: for Increase in potassium levels relative to baseline: Week 8; for Individuals with increased serum K+, Mild 5.6-6.0 mMol/L (number) / Individuals with increased serum K+, Mild 5.6-6.0 mMol/L (percent) / Individuals with increased serum K+, Moderate 6.1-6.5 mMol/L / Individuals with increased serum K+, Severe >6.5 mMol/L: during treatment
Source text: as §1
The Safety Analysis Set includes all enrolled subjects who received at least one dose of study treatment (MLS-101 or placebo). In analyses performed on the Safety Analysis Set, subjects will be analyzed according to their actual treatment received.

CC(=O)N[C@H]1CC[C@H](NC(=O)CN2CCN(c3nncc(-c4ccc(C)cc4)n3)CC2)CC1 [Compound A HBr]
Adrenocortical insufficiency (hypertensive subjects [1]; during the trial, listed as lorundrostat): no adrenocortical insufficiency occurred
ACTH-stimulation results (hypertensive subjects [1]; majority of Part 2 subjects, 100 mg QD, Baseline and after 8 weeks): no individuals with abnormal ACTH-stimulation results
Serum sodium levels (hypertensive subjects [2]): decreased
Renin Activity, Mean (SD) Observed (plasma renin activity; Wk 4, 12.5 mg BID): 5.989 (11.272) μg/L/hr
Renin Activity, Mean (SD) Percent Change from Baseline (plasma renin activity; Wk 4, 12.5 mg BID): 838.89 (2411.4) %
Renin Activity, Mean (SD) Observed (plasma renin activity; Wk 4, 12.5 mg QD): 1.804 (3.565) μg/L/hr
Renin Activity, Mean (SD) Percent Change from Baseline (plasma renin activity; Wk 4, 12.5 mg QD): 85.09 (291.65) %
Renin Activity, Mean (SD) Observed (plasma renin activity; Wk 4, 25 mg BID): 2.860 (4.219) μg/L/hr
Renin Activity, Mean (SD) Percent Change from Baseline (plasma renin activity; Wk 4, 25 mg BID): 344.07 (480.75) %
Renin Activity, Mean (SD) Observed (plasma renin activity; Wk 4, 50 mg QD): 3.940 (9.162) μg/L/hr
Renin Activity, Mean (SD) Percent Change from Baseline (plasma renin activity; Wk 4, 50 mg QD): 359.69 (888.86) %
Renin Activity, Mean (SD) Observed (plasma renin activity; Wk 4, 100 mg QD): 3.870 (6.308) μg/L/hr
Renin Activity, Mean (SD) Percent Change from Baseline (plasma renin activity; Wk 4, 100 mg QD): 489.18 (974.60) %
Renin Activity, Mean (SD) Observed (plasma renin activity; Wk 12, 12.5 mg BID): 5.118 (11.751) μg/L/hr
Renin Activity, Mean (SD) Percent Change from Baseline (plasma renin activity; Wk 12, 12.5 mg BID): 212.37 (402.15) %
Renin Activity, Mean (SD) Observed (plasma renin activity; Wk 12, 12.5 mg QD): 2.429 (5.048) μg/L/hr
Renin Activity, Mean (SD) Percent Change from Baseline (plasma renin activity; Wk 12, 12.5 mg QD): 137.45 (279.23) %
Renin Activity, Mean (SD) Observed (plasma renin activity; Wk 12, 25 mg BID): 2.898 (8.323) μg/L/hr
Renin Activity, Mean (SD) Percent Change from Baseline (plasma renin activity; Wk 12, 25 mg BID): 198.91 (423.17) %
Renin Activity, Mean (SD) Observed (plasma renin activity; Wk 12, 50 mg QD): 3.374 (7.008) μg/L/hr
Renin Activity, Mean (SD) Percent Change from Baseline (plasma renin activity; Wk 12, 50 mg QD): 400.07 (808.60) %
Renin Activity, Mean (SD) Observed (plasma renin activity; Wk 12, 100 mg QD): 1.653 (2.830) μg/L/hr
Renin Activity, Mean (SD) Percent Change from Baseline (plasma renin activity; Wk 12, 100 mg QD): 94.66 (221.58) %
Renin Activity, Mean Observed (plasma renin activity; Wk 4, 100 mg QD): 12.642 µg/L/h
Renin Activity, Mean Percent Change from Baseline (plasma renin activity; Wk 4, 100 mg QD): 811.54%
Renin Activity, Mean Observed (plasma renin activity; Wk 10, 100 mg QD): 7.602 µg/L/h
Renin Activity, Mean Percent Change from Baseline (plasma renin activity; Wk 10, 100 mg QD): 192.62%
Plasma renin activity, pharmacodynamic response (plasma renin activity; across doses): commensurate increase in plasma renin activity
Renin activity, percent change from baseline (plasma renin activity; irrespective of dose and baseline PRA, highest at Week 4): increased in all subjects treated with lorundrostat
Vital signs, physical examination, ECG parameters (hypertensive subjects [3]): no notable findings
Increase in potassium levels relative to baseline (hypertensive subjects [4]; 25 mg BID, Part 1): 0.341 mmol/L
Serum K+ Mean Change from Baseline to Wk 8 (hypertensive subjects [4]; 50 mg QD (n = 28)): +0.25 mmol/L
Individuals with increased serum K+, Mild 5.6-6.0 mMol/L (number) (hypertensive subjects [4]; 50 mg QD (n = 28)): 1
Individuals with increased serum K+, Mild 5.6-6.0 mMol/L (percent) (hypertensive subjects [4]; 50 mg QD (n = 28)): (10.7%)
Individuals with increased serum K+, Moderate 6.1-6.5 mMol/L (hypertensive subjects [4]; 50 mg QD (n = 28)): 0
Serum K+ Mean Change from Baseline to Wk 8 (hypertensive subjects [4]; 100 mg QD (n = 61)): +0.29 mmol/L
Individuals with increased serum K+, Mild 5.6-6.0 mMol/L (number) (hypertensive subjects [4]; 100 mg QD (n = 61)): 8
Individuals with increased serum K+, Mild 5.6-6.0 mMol/L (percent) (hypertensive subjects [4]; 100 mg QD (n = 61)): (13.1%)
Individuals with increased serum K+, Moderate 6.1-6.5 mMol/L (hypertensive subjects [4]; 100 mg QD (n = 61)): 1 (1.6%)
Individuals with increased serum K+, Severe >6.5 mMol/L (hypertensive subjects [4]; 100 mg QD (n = 61)): 1 (1.6%)
Number of individuals with verified or multiple increased serum K+ 5.2-5.5 mMol/L (hypertensive subjects [4]; 100 mg QD, Part 1): 5
Number of individuals with verified or multiple increased serum K+ 5.6-6.0 mMol/L (hypertensive subjects [4]; 100 mg QD, Part 1): 3
Number of individuals with verified or multiple increased serum K+ 6.1-6.5 mMol/L (hypertensive subjects [4]; 100 mg QD, Part 1): 0
Percent of individuals with verified or multiple increased serum K+ 5.2-5.5 mMol/L (hypertensive subjects [4]; 100 mg QD, Part 1): (18.5%)
Percent of individuals with verified or multiple increased serum K+ 5.6-6.0 mMol/L (hypertensive subjects [4]; 100 mg QD, Part 1): (10.7%)
Number of individuals with increased serum K+ >6.5 mMol/L (hypertensive subjects [4]; 100 mg QD, Part 1, isolated incident not verified by repeat measurement): 1*
Number of individuals with verified or multiple increased serum K+ 5.2-5.5 mMol/L (hypertensive subjects [4]; 100 mg QD, Part 2): 1
Number of individuals with verified or multiple increased serum K+ 5.6-6.0 mMol/L (hypertensive subjects [4]; 100 mg QD, Part 2): 0
Number of individuals with verified or multiple increased serum K+ 6.1-6.5 mMol/L (hypertensive subjects [4]; 100 mg QD, Part 2): 0
Number of individuals with verified or multiple increased serum K+ >6.5 mMol/L (hypertensive subjects [4]; 100 mg QD, Part 2): 0
Percent of individuals with verified or multiple increased serum K+ 5.2-5.5 mMol/L (hypertensive subjects [4]; 100 mg QD, Part 2): (4%)
Increase in potassium levels relative to baseline (hypertensive subjects [4]; 100 mg QD, Part 2): 0.208 mmol/L
Number of individuals with verified or multiple increased serum K+ 5.2-5.5 mMol/L (hypertensive subjects [4]; 100 mg QD, Pooled): 6
Number of individuals with verified or multiple increased serum K+ 5.6-6.0 mMol/L (hypertensive subjects [4]; 100 mg QD, Pooled): 3
Number of individuals with verified or multiple increased serum K+ 6.1-6.5 mMol/L (hypertensive subjects [4]; 100 mg QD, Pooled): 0
Number of individuals with verified or multiple increased serum K+ >6.5 mMol/L (hypertensive subjects [4]; 100 mg QD, Pooled): 0
Percent of individuals with verified or multiple increased serum K+ 5.2-5.5 mMol/L (hypertensive subjects [4]; 100 mg QD, Pooled): (10.3%)
Percent of individuals with verified or multiple increased serum K+ 5.6-6.0 mMol/L (hypertensive subjects [4]; 100 mg QD, Pooled): (5.2%)
Individuals with increased serum K+, Mild 5.6-6.0 mMol/L (number) (hypertensive subjects [4]; All Active (n = 163)): 16
Individuals with increased serum K+, Mild 5.6-6.0 mMol/L (percent) (hypertensive subjects [4]; All Active (n = 163)): (9.8%)
Individuals with increased serum K+, Moderate 6.1-6.5 mMol/L (hypertensive subjects [4]; All Active (n = 163)): 4 (2.5%)
Individuals with increased serum K+, Severe >6.5 mMol/L (hypertensive subjects [4]; All Active (n = 163)): 2*
Change in group mean serum potassium (K+), Mean (hypertensive subjects [4]; Part 1 (N 26)): +0.50 mMol/L
Change in group mean serum potassium (K+), Mean (hypertensive subjects [4]; Part 1, N 26*): +0.50 mMol/L
Change in group mean serum potassium (K+), Mean (hypertensive subjects [4]; Part 2 (N 31)): +0.23 mMol/L
Change in group mean serum potassium (K+), Mean (hypertensive subjects [4]; Part 2, N 31): +0.23 mMol/L
Subjects with transient elevated serum potassium greater than 6.0 mmol/L (hypertensive subjects [4]; Parts 1 and 2, listed as lorundrostat): seven
Change in group mean serum potassium (K+), Mean (hypertensive subjects [4]; Pooled (N 57)): +0.35 mMol/L
Change in group mean serum potassium (K+), Mean (hypertensive subjects [4]; Pooled, N 57): +0.35 mMol/L
Serum potassium levels compared with placebo (hypertensive subjects [4]; active treatment cohorts, Parts 1 and 2): increased
